According to ChEMBL document CHEMBL1221272, “Discovery and structure-activity relationships of a series of pyroglutamic acid amide antagonists of the P2X7 receptor” (Bioorg Med Chem Lett, 2010):
Converted amounts (≈) assume the structure as drawn. Values belong to the molecule of their own block, whether it stands above or below them. The source made the active and inactive calls. The calls are words filed in the database; no cut-off is given here.

Tests used:
Liver microsomes [1] = experiment: Intrinsic clearance in rat liver microsome; format: ADME
[2] = Lipophilicity, log D of the compound at pH 7.4; format: physicochemical; conditions: buffer
P2X purinoceptor 7 [3] = molecular target: T1, P2X purinoceptor 7 (Homo sapiens, UniProt Q99572); experiment: Inhibition of human P2X7 receptor by ethidium bromide release assay
T1 sequence (Q99572 whole entry): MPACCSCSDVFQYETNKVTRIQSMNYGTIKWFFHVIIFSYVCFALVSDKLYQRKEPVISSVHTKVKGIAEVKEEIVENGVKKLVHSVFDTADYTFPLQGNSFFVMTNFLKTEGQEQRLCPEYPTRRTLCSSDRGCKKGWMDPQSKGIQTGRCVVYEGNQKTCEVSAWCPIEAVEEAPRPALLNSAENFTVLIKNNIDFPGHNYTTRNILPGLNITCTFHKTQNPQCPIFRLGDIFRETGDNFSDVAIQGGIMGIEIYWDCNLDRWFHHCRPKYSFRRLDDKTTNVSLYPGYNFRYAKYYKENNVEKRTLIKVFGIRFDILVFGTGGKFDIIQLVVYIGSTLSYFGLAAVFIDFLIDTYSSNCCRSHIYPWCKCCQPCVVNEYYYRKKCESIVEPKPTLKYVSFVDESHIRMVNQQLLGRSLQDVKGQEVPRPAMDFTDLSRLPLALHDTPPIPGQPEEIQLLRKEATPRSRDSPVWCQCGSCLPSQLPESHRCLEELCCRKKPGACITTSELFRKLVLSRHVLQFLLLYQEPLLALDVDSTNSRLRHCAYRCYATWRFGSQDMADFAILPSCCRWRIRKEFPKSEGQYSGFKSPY

P2X purinoceptor 7 [4] = molecular target: T2, P2X purinoceptor 7 (Rattus norvegicus, UniProt Q64663); experiment: Inhibition of rat P2X7 receptor by ethidium bromide release assay
T2 sequence (Q64663 whole entry): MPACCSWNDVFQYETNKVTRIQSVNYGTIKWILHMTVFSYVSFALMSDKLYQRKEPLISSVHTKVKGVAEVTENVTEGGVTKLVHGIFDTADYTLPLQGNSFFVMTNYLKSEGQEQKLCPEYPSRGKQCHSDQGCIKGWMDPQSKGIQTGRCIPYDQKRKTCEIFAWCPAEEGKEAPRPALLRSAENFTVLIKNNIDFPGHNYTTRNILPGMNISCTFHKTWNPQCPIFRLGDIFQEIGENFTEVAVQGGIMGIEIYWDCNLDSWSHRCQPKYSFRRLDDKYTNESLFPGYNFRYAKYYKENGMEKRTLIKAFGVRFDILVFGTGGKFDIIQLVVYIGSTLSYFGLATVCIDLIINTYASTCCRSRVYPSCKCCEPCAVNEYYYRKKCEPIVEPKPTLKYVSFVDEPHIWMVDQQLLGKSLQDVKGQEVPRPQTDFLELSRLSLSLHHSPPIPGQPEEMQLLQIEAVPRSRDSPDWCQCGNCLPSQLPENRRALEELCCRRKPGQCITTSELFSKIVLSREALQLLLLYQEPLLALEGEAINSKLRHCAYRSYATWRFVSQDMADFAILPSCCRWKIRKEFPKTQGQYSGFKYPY

Rattus norvegicus [5] = experiment: Antiinflammatory activity in rat assessed as inhibition of FCA-induced hypersensitivity at 20 and 50 mg/kg, po bid for 5 days; format: functional, organism-based; set-up: dose 50 mg/kg
Liver microsomes [6] = experiment: Intrinsic clearance in human liver microsome; format: ADME
[7] = Blood clearance in rat at 1 mg/kg, iv for 1 hrs; format: ADME, organism-based; set-up: dose 1 mg/kg, route intravenous
[8] = Half life in rat at 1 mg/kg, iv for 1 hrs; format: ADME, organism-based; set-up: dose 1 mg/kg, route intravenous; conditions: in vivo
[9] = Volume of distribution at steady state in rat at 1 mg/kg, iv for 1 hrs; format: ADME, organism-based; set-up: dose 1 mg/kg, route intravenous; conditions: in vivo, read-out: Vdss
[10] = Tmax in rat at 3 mg/kg, po for 1 hrs; format: ADME, organism-based; set-up: dose 3 mg/kg, route oral; conditions: in vivo
[11] = Cmax in rat at 3 mg/kg, po for 1 hrs; format: ADME, organism-based; set-up: dose 3 mg/kg, route oral; conditions: in vivo
Rattus norvegicus [12] = experiment: AUC in rat at 3 mg/kg, po for 1 hrs; format: ADME, organism-based, Plasma; set-up: dose 3 mg/kg, route oral; conditions: in vivo
[13] = Oral bioavailability in rat at 3 mg/kg for 1 hrs; format: ADME, organism-based; conditions: in vivo
Brain = experiment: Drug level in rat brain at 50 mg/kg, po; format: ADME, organism-based; set-up: dose 50 mg/kg, route oral; conditions: in vivo, read-out: Drug uptake
Plasma = experiment: Drug level in rat plasma at 50 mg/kg, po; format: ADME, organism-based; set-up: dose 50 mg/kg, route oral; conditions: in vivo, read-out: Drug uptake
Rattus norvegicus [14] = experiment: Antiallodynic activity in rat chronic constriction injury model assessed as nerve injury-induced allodynia at 20 mg/kg, po bid measured post dose on day 1 of 8 days treatment; format: functional, organism-based; set-up: dose 20 mg/kg
[15] = Drug level in brain of rat chronic constriction injury model at 20 mg/kg, po bid for 8 days measured on last day; format: ADME, organism-based; set-up: dose 20 mg/kg, route oral
[16] = Drug level in plasma of rat chronic constriction injury model at 20 mg/kg, po bid for 8 days measured on last day; format: ADME, organism-based; set-up: dose 20 mg/kg, route oral
[17] = Solubility of the compound; format: physicochemical
Rattus norvegicus [18] = experiment: Antiallodynic activity in rat chronic constriction injury model assessed as nerve injury-induced allodynia at 20 mg/kg, po bid measured post dose on day 1 of 8 days treatment

Structure (SMILES): Cc1nn(-c2ccccc2)c(C)c1CC(=O)NCc1ccc(F)cc1Cl
- CL (Liver microsomes [1]): 46 mL/min/g
- logD [2]: 3.4

Structure (SMILES): Cc1n[nH]c(C)c1CC(=O)NCc1ccc(Cl)cc1Cl
- CL (Liver microsomes [1]): 1.3 mL/min/g
- logD [2]: 2.7

Structure (SMILES): CN(C(=O)c1cc(Cl)c(=O)n(Cc2c(Cl)cccc2Cl)c1)c1ccccc1
- IC50 (P2X purinoceptor 7 [3]): 126 nM
- CL (Liver microsomes [1]): > 50 mL/min/g
- IC50 (P2X purinoceptor 7 [4]): 316 nM
- logD [2]: 4.4

Structure (SMILES): CC(=O)N1CCC[C@H]1C(=O)NCc1ccc(F)cc1Cl
- IC50 (P2X purinoceptor 7 [3]): 100 nM

Structure (SMILES): CCN1C(=O)CC[C@H]1C(=O)NCc1ccccc1OC
- IC50 (P2X purinoceptor 7 [3]): < 1000 nM

Structure (SMILES): CN(Cc1ccc(Cl)cc1Cl)C(=O)[C@@H]1CCC(=O)N1C
- IC50 (P2X purinoceptor 7 [3]): < 1000 nM

Structure (SMILES): CCN1C(=O)CC[C@H]1C(=O)NCc1ccc(Cl)cc1
- IC50 (P2X purinoceptor 7 [3]): 631 nM

Structure (SMILES): CCN1C(=O)CC[C@H]1C(=O)NCc1cccc(C(F)(F)F)c1
- IC50 (P2X purinoceptor 7 [3]): 100 nM

Structure (SMILES): CCN1C(=O)CC[C@H]1C(=O)NCC12CC3CC(CC(C3)C1)C2
- IC50 (P2X purinoceptor 7 [3]): 79.4 nM

Structure (SMILES): CCN1C(=O)CC[C@H]1C(=O)NCC1CCCCC1
- IC50 (P2X purinoceptor 7 [3]): < 1000 nM

Structure (SMILES): CCN1CCC[C@H]1C(=O)NCc1ccc(F)cc1Cl
- IC50 (P2X purinoceptor 7 [3]): < 1000 nM

Structure (SMILES): CCN1C(=O)CC[C@H]1C(=O)NCc1ccccc1Cl
- IC50 (P2X purinoceptor 7 [3]): 631 nM

Structure (SMILES): O=C1CC[C@@H](C(=O)NCc2ccc(F)cc2Cl)N1
- IC50 (P2X purinoceptor 7 [3]): < 1000 nM

Structure (SMILES): Cc1ccc(-c2cc(C(F)(F)F)nn2-c2ccc(S(N)(=O)=O)cc2)cc1
- Activity (Rattus norvegicus [5]): inactive

Structure (SMILES): CCN1C(=O)CC[C@H]1C(=O)NCc1ccccc1
- IC50 (P2X purinoceptor 7 [3]): < 1000 nM

Structure (SMILES): CCN1C(=O)CC[C@H]1C(=O)NCc1ccccc1C(F)(F)F
- IC50 (P2X purinoceptor 7 [3]): 631 nM

Structure (SMILES): CN1C(=O)CC[C@H]1C(=O)NCc1cccc(C(F)(F)F)c1Cl [GSK1482160]
- IC50 (P2X purinoceptor 7 [3]): 3.16 nM
- CL (Liver microsomes [6]): < 0.5 mL/min/g
- IC50 (P2X purinoceptor 7 [4]): 316 nM
- logD [2]: 1.9
- clearance [7]: 9 mL/min/kg
- half-life [8]: 1.5 h
- Vd [9]: 1.1 L/kg
- Tmax [10]: 1 h
- Cmax [11]: 2.45 µM
- AUC (Rattus norvegicus [12]): 73 kg·min/L
- bioavailability [13]: 65%
- concentration (Brain): 26.7 µM
- concentration (Plasma): 12.9 µM
- Activity (Rattus norvegicus [14]): Active
- concentration at 192 h [15]: 3.36 µM
- concentration at 192 h [16]: 5.91 µM
- solubility [17]: 970 µg/mL (≈ 2900 µM)
- Activity (Rattus norvegicus [18]): Active

The next lines start with the values.

- IC50 (P2X purinoceptor 7 [3]): 501 nM
Structure (SMILES): O=C(NCc1ccc(F)cc1Cl)[C@@H]1CCC(=O)N1C1CCCC1

- IC50 (P2X purinoceptor 7 [3]): 794 nM
Structure (SMILES): O=C(NCc1ccc(F)cc1Cl)[C@@H]1CCC(=O)N1c1ccccc1

- CL (Liver microsomes [1]): 2.3 mL/min/g
Structure (SMILES): O=C(NCc1ccc(F)cc1Cl)[C@@H]1CCC(=O)N1C1CCC1

- IC50 (P2X purinoceptor 7 [3]): 158 nM
Structure (SMILES): CCN1C(=O)CC[C@@H]1C(=O)NCc1ccc(F)cc1Cl

- IC50 (P2X purinoceptor 7 [3]): 398 nM
Structure (SMILES): CC(C)CN1C(=O)CC[C@H]1C(=O)NCc1ccc(F)cc1Cl

- IC50 (P2X purinoceptor 7 [3]): 316 nM
- IC50 (P2X purinoceptor 7 [4]): > 10000 nM
- logD [2]: 2.6
Structure (SMILES): CC(C)N1C(=O)CCC1C(=O)NCc1ccc(F)cc1Cl (stereo not drawn)

- IC50 (P2X purinoceptor 7 [3]): 31.6 nM
- CL (Liver microsomes [1]): < 0.5 mL/min/g
Structure (SMILES): CCN1C(=O)CC[C@H]1C(=O)NCc1ccc(F)cc1Cl

- IC50 (P2X purinoceptor 7 [3]): 158 nM
Structure (SMILES): CCCN1C(=O)CC[C@H]1C(=O)NCc1ccc(F)cc1Cl

- IC50 (P2X purinoceptor 7 [3]): 100 nM
Structure (SMILES): CN1C(=O)CC[C@H]1C(=O)NCc1ccc(F)cc1Cl

- IC50 (P2X purinoceptor 7 [3]): 100 nM
- IC50 (P2X purinoceptor 7 [4]): 1580 nM
Structure (SMILES): CC(C)N1C(=O)CC[C@H]1C(=O)NCc1ccc(F)cc1Cl
